Source: publication PMC11784026, “Phase 1 study of the safety, tolerability, and pharmacokinetics of a synthetic macrocyclic peptide antibiotic (BRII-693) in healthy adult participants” (Antimicrobial Agents and Chemotherapy, 2024)
Like-named read-outs stand apart in the source and are kept apart here. Where a SMILES comes first, the peptide text is derived from it. Bridges are numbered along the chain shown (N, C = ends). [ ]: non-standard residue; d: D form. The star is where a group is joined. X1 = O=C(c1ccc(Cl)cc1Cl)*; Dab = NCC[C@H](N)C(=O)O; Abu = CC[C@H](N)C(=O)O; Dap = NC[C@H](N)C(=O)O

Assay: Plasma pharmacokinetics after multiple ascending doses (MAD), phase 1
Format: in vivo, human (healthy adult participants)
Conditions: human, plasma, iv; for Vd: read-out: VZ; for Tmax: read-out: Tmax
Protocol: Participants were discharged on day 11.
Plasma and urine PK parameters were summarized for each cohort using descriptive statistics. Analyses using linear models were performed to assess dose proportionality (both single-dose cohorts 1–7 and multiple-dose cohorts 8–10). Dose-linearity of Cmax and AUC across the dose range was assessed by fitting the power model with ln-transformed parameter as response variables and ln-transformed dose (continuous variable) as a fixed effect. For each PK parameter and study phase (SAD or MAD) separately, a pooled estimate (across all dose cohorts) of slope, corresponding 95% confidence interval (CI), and between-subject coefficient of variation (CV) were calculated. Dose proportionality was to be concluded if the 95% CI for the slope spans 1. […] Least square means (LSMs) and difference in LSMs with 90% CI were calculated; these values were then back exponentiated to give the geometric LSM, geometric mean ratio, and 90% CI.

[1] = 150 mg, First q6h dose (day 1), 14-day MAD 150 mg q6h × 14, Chinese, n = 10, arithmetic mean ± SD
[2] = 150 mg, First q6h dose (day 1), 14-day MAD 150 mg q6h × 14, non-Chinese, n = 10, arithmetic mean ± SD
[3] = 150 mg, First q6h dose (day 3), 7-day MAD 150 mg q6h × 7, n = 5, arithmetic mean ± SD
[4] = 150 mg, Last q6h dose (day 9), 7-day MAD 150 mg q6h × 7, n = 5, arithmetic mean ± SD
[5] = 150 mg, Last q6h dose (day 14), 14-day MAD 150 mg q6h × 14, Chinese, n = 6, arithmetic mean ± SD
[6] = 150 mg, Last q6h dose (day 14), 14-day MAD 150 mg q6h × 14, non-Chinese, n = 10, arithmetic mean ± SD
[7] = 200 mg, First q6h dose (day 3), 7-day MAD 200 mg q6h × 7, n = 4, arithmetic mean ± SD
[8] = 200 mg, Last q6h dose (day 9), 7-day MAD 200 mg q6h × 7, n = 5, arithmetic mean ± SD

For CC[C@@H]1NC(=O)[C@@H](CC(C)C)NC(=O)[C@H](CCN)NC(=O)[C@@H](NC(=O)[C@H](CN)NC(=O)[C@@H](NC(=O)[C@H](CCN)NC(=O)c2ccc(Cl)cc2Cl)[C@@H](C)O)CCNC(=O)[C@H]([C@@H](C)O)NC(=O)[C@H](CCN)NC(=O)[C@H](CCN)NC1=O [BRII-693] (X1-[Dab]T[Dap][Dab][Dab][dL][Abu][Dab][Dab]T; lactam 4-C; N-terminus assumed), the clearance [1] was 77.7 mL/min, the half-life [1] was 129 ± 16.8 min and the AUC(0-t) (150 mg, First q6h dose (day 1), 14-day MAD 150 mg q6h × 14, Chinese, n = 10, arithmetic mean ± SD, read-out: AUC0-6h) was 27300 ± 4140 ng·h/mL. For the same molecule, the Vd [1] was 14.4 ± 2.93 L, the Cmax [1] was 10200 ± 1890 ng/mL and the clearance [2] was 80 mL/min. The half-life [2] was 145 ± 17.4 min, the AUC(0-t) (150 mg, First q6h dose (day 1), 14-day MAD 150 mg q6h × 14, non-Chinese, n = 10, arithmetic mean ± SD, read-out: AUC0-6h) was 25200 ± 2860 ng·h/mL and the Vd [2] was 16.7 ± 2.57 L. For the same molecule, the Cmax [2] was 9200 ± 1050 ng/mL, the Cmax (150 mg, First q6h dose (day 3), 7-day MAD 150 mg q6h × 7, 1-h IV infusion, n = 5, arithmetic mean ± SD) was 8690 ± 1240 ng/mL and the clearance [3] was 82.3 mL/min. It also gave an AUC(0-t) (150 mg, First q6h dose (day 3), 7-day MAD 150 mg q6h × 7, n = 5, arithmetic mean ± SD, read-out: AUC0-6h) of 24800 ± 3450 ng·h/mL, a Vd [3] of 17.2 ± 3.33 L and a clearance [4] of 69.2 mL/min. For the same molecule, the half-life [4] was 406 ± 21 min, the AUC(0-t) (150 mg, Last q6h dose (day 9), 7-day MAD 150 mg q6h × 7, n = 5, arithmetic mean ± SD, read-out: AUC0–6h) was 36600 ± 4360 ng·h/mL and the Vd [4] was 40.9 ± 9.47 L. The Tmax (150 mg, Last q6h dose (day 9), 7-day MAD 150 mg q6h × 7, n = 5, median (range)) was 1.07 h, the Cmax (150 mg, Last q6h dose (day 9), 7-day MAD 150 mg q6h × 7, plasma, n = 5, arithmetic mean ± SD) was 11700 ± 1540 ng/mL and the clearance [5] was 59.5 mL/min. For the same molecule, the half-life [5] was 744 ± 415 min, the AUC(0-t) (150 mg, Last q6h dose (day 14), 14-day MAD 150 mg q6h × 14, Chinese, n = 6, arithmetic mean ± SD, read-out: AUC0–6h) was 42500 ± 4960 ng·h/mL and the Vd [5] was 61.9 ± 30.2 L. It also gave a Cmax [5] of 13300 ± 1500 ng/mL, a clearance [6] of 64.7 mL/min and a half-life [6] of 936 ± 702 min. It also gave an AUC(0-t) (150 mg, Last q6h dose (day 14), 14-day MAD 150 mg q6h × 14, non-Chinese, n = 10, arithmetic mean ± SD, read-out: AUC0–6h) of 39900 ± 7150 ng·h/mL, a Vd [6] of 81.4 ± 55.6 L and a Cmax [6] of 12700 ± 1780 ng/mL. The Cmax (200 mg, First q6h dose (day 3), 7-day MAD 200 mg q6h × 7, 1-h IV infusion, n = 5, arithmetic mean ± SD) was 13500 ± 4430 ng/mL, the clearance [7] was 76.3 mL/min and the Vd [7] was 15.7 ± 5.81 L. The half-life (200 mg, First q6h dose (day 3), 7-day MAD 200 mg q6h × 7, n = 5, arithmetic mean ± SD) was 149 ± 30.6 min, the AUC(0-t) (200 mg, First q6h dose (day 3), 7-day MAD 200 mg q6h × 7, n = 5, arithmetic mean ± SD, read-out: AUC0-6h) was 36800 ± 10100 ng·h/mL and the Tmax (200 mg, First q6h dose (day 3), 7-day MAD 200 mg q6h × 7, n = 5, median (range)) was 1.08 h. The clearance [8] was 57.8 mL/min, the half-life [8] was 455 ± 55.8 min and the AUC(0-t) (200 mg, Last q6h dose (day 9), 7-day MAD 200 mg q6h × 7, n = 5, arithmetic mean ± SD, read-out: AUC0–6h) was 61300 ± 15700 ng·h/mL. The Vd [8] was 37.3 ± 8.4 L, the Tmax (200 mg, Last q6h dose (day 9), 7-day MAD 200 mg q6h × 7, n = 5, median (range)) was 1.1 h and the Cmax (200 mg, Last q6h dose (day 9), 7-day MAD 200 mg q6h × 7, plasma, n = 5, arithmetic mean ± SD) was 18300 ± 4150 ng/mL.
